Source: US6617361B2, “Behavior chemotherapy” (Be Able, LLC, priority 1999, dated 2003)
Structures can show the parent of a compound that is named as a salt.

Key:
Patient three = experiment: Protocol and results with patient three (chronic fatigue); details: for side effect noted by patient: combination reduced to Adipex-P 37.5 one-half, Celexa one-quarter, Aricept one-quarter, fenfluramine one-quarter pill q.a.m.; for patient-reported status: within two days, combination Adipex-P 37.5 mg one-half b.i.d. + Celexa 10 mg q.d. + fenfluramine 10 mg q.d. + Aricept one-half q.d.
Description: Longstanding patient in my practice who […] developed a viral illness followed by chronic fatigue. This problem persisted, numerous evaluations and consultations were obtained, in excess of 20 physicians were consulted, and the patient was followed for nine months in a major medical center with the diagnosis of chronic Lyme disease. Prior to this their symptoms included a compendium of mild lifelong autonomic dysfunction including chronic bladder and urethral problems which necessitated urological surgery in the distant past. They had not retired from work but had taken long leaves of absence and found it difficult to keep up their normal work schedule as a social worker, something they had done for many years. In the past for their autonomic dysfunction they had been placed on Depakote, Wellbutrin, and amitriptyline and they were on this when they became ill.
Their other medical problems included mitral valve prolapse with click and no murmur but no symptoms, a history of endometriosis, occasional kidney stones, and an ovarian cyst.
Therapy was begun on May 26, 1999. On Jun. […] They were still on 12.5 mg of Elavil or one-half pill and some minocin for acne, Wellbutrin from their psychiatrist, and Zithromax, an antibiotic started by other physicians for the treatment of Lyme disease. This is something that I advised them to discontinue, but they continued because of the concerns of the diagnosis.

Patient five = experiment: Protocol and results with patient five (severe obesity); assay type: in vivo, human; details: for body weight: December 1997, combination Ionamin 30 mg + fenfluramine 20 mg + Zoloft 25 mg q.d. since August 1995, start in excess of 350 lb; for body weight reported by phone: combination Adipex-P 37.5 mg one-half b.i.d. + Celexa 20 mg one-half MWF + Adalat 30 + Aricept + Nutrimed three times daily, from 264¼ lb
Description: This person has been a patient in this practice for many years. Their medical problems are extremely long-lived and include chronic depression, severe obesity, hypertension, stasis dermatitis, and venous insufficiency of the lower extremities, and seborrhea.
In addition they were taking Lasix, Zaroxolyn and potassium for the control of their severe edema and leg pain. They were also using the CPAP machine.
At their insistence Meridia and Adalat were attempted. […] To augment the weight loss the patient was started on Nutrimed three times daily plus a regular dinner.

Patient four = experiment: Protocol and results with patient four (morbid obesity, cardiomyopathy); assay type: in vivo, human; details: for cardiac index remeasured / body weight the next month: combination Adipex-P 37.5 one-half + Zoloft 25 mg + Aricept 1.25 mg + fenfluramine 5 mg (+ atenolol 12.5 mg); for body weight the next month: from 235 lb June 1999
Method: This person has been in the practice for several years. Their medical problems surround a cardiomyopathy with a low cardiac output state and heart failure. They also have a history of hypertension, hypothyroidism on therapy, and morbid obesity.
Medication alterations continued over the next several months with increasing Ionamin to 30 mg. Hytrin was added at 2 mg because of prostatic symptoms and in November Pondimin was added.
Adipex-P 37.5 one-half was added to their medications. […]

Patient six [1] = experiment: Protocol and results with patient six, Example 10 (fibromyalgia, obesity); assay type: in vivo, human; details: for weight lost on therapy to date: Ionamin + fenfluramine (until 1996) + Zoloft from December 1995, Aricept from August 1998; for body weight: July 1999; for overall condition: over three years from December 1995, combination Ionamin 30 mg + fenfluramine 20 mg + Zoloft 25 mg, fenfluramine discontinued 1996
Description: This longstanding patient was first seen in 1988 for fibromyalgia. They are also bothered by chronic low back pain, mitral valve prolapse, sleep disturbance, a family history of coronary disease, and obesity. They are 5′8″ tall, 205½ lb. […] Their problem list contained the additional diagnoses of GERD, carpal tunnel syndrome, suspected mitral valve prolapse, and acne rosacea.
Their medication list included Synthroid, Estratest, Klonopin, Prilosec, Limbitrol, Provera, Premarin and Zostrix cream. […] They frequented health food stores, as well as chiropractors for relief.
Although greatly fearful of potential long-term problems, the patient finally agreed to the institution of a change in their medications and started therapy which was a major change in their medicines December 1995. […] At that time the patient's weight was in the mid 180s. Their other medications were continued.
This was an independent patient-initiated decision.

Patient two = experiment: Protocol and results with patient two (leg pain, absence of energy); assay type: in vivo, human; details: for body weight: August 1999, from 143 lb November 1998, Celexa 10 mg + Adipex-P 37.5 one-half (+ atenolol 25 mg), later with Aricept 1.25 mg three times weekly; for weight reduction / leg aches: Celexa + Adipex-P + Aricept (atenolol at first); for weight reduction: November 1998 to August 1999; for leg aches: by August 1999
Method: First evaluated this 5′4″, ectomorphic, single person who was […] at the time.
On Nov. […] They were started on Celexa 10 mg, Adipex-P 37.5 one-half tablet, and atenolol 25 mg all in the morning.
They will keep in touch with me as they will take each instruction for four doses and then go to the next.

Patient six [2] = experiment: Protocol and results with patient six, Example 12 (thalamic pain syndrome, ethanol use); details: for body weight change: approximately five weeks into therapy, combination Adipex-P + fenfluramine + Celexa + Nutrimed; for energy level / pain as described by patient: combination Adipex-P 37.5 one-half b.i.d. + fenfluramine 10 mg + Celexa 10 mg + Nutrimed three times daily (+ atenolol 25 mg); for alcohol withdrawal phenomena: combination Adipex-P 37.5 one-half b.i.d. + fenfluramine 10 mg + Celexa 10 mg + Nutrimed three times daily + Librium 30 mg (three days) + atenolol 25 mg; for outcome of earlier trials for thalamic pain syndrome: before the protocol
Method: Person with sudden onset of numbness right side of body in Guyana 1973. […] Diagnosis was thalamic pain syndrome.
Other medical problems: borderline hypertension, obesity secondary to ETOH, hemorrhoids, and remote short-lived cigarette smoking.
At the time therapy started the patient was taking either hydrocodone/APAPE 7.5/500 as needed or Percocet. […] Therapy was started with Adipex-P 37.5 one-half p.o. bid., fenfluramine 10 mg p.o. q.a.m., Celexa 10 mg p.o. q.a.m., Nutrimed three times daily plus dinner for nutritional support (Nutrimed is a high protein, low carbohydrate semi-starvation fast), Librium 30 mg q.d. because of the discontinuation of alcohol, atenolol 25 mg q.a.m. Treatment started July 1999.
By mid-August, approximately five weeks into therapy, the patient was still on Nutrimed and Adipex but the fenfluramine was diminished to one-quarter of a pill or 5 mg. The atenolol was discontinued and the patient was encouraged to exercise.

Patient one = experiment: Protocol and results with patient one (cigarette smoking); details: January 1998; Ionamin 15 mg + Prozac 10 mg MWF (+ Estratest, occasional Tranxene)
Description: In addition, they were started on the moderate dose of the patch.

[3] = July 1997, combination Ionamin 30 mg + Zoloft 25 + Pondimin
[4] = November, Ionamin (15 then 30 mg) + Zoloft 25 since April 1996, before Pondimin, not decreasing, averaging 237 lb before
[5] = current medication includes Ionamin 15 mg q.a.m. and Aricept one-quarter pill MWF

Molecule: CC(C)(N)Cc1ccccc1 [Adipex-P, phentermine]
- side effect noted by patient (Patient three): some difficulty sleeping
- patient-reported status (Patient three): life had been transformed back towards its normal status
- body weight (Patient five): 245 lb
- body weight reported by phone (Patient five): ~240 lb
- improvement (weight, fatigue) (Patient four; Adipex-P 37.5 one-half + Celexa 10 mg twice weekly + Aricept one-quarter pill MWF, in the absence of fenfluramine): essentially no improvement
- body weight (Patient four; [3]): 217 lb
- cardiac output by echocardiography (Patient four; [3]): improved
- body weight (Patient four; [4]): 230 lb
- cardiac index remeasured (Patient four): even more improved than previously
- body weight the next month (Patient four): 218
- weight lost on therapy to date (Patient six [1]): approximately 25 lb
- body weight (Patient six [1]; [5]): 161 lb
- chronic fatigue remaining, of its original (Patient six [1]; [5]): ~20%
- overall condition (Patient six [1]): greatly improved
- body weight (Patient two): 127 lb
- weight reduction (Patient two): 12.5%
- leg aches (Patient two): resolution of their leg aches
- body weight change (Patient six [2]): marked weight loss
- energy level (Patient six [2]): marked improvement in energy level
- pain as described by patient (Patient six [2]): markedly diminished
- alcohol withdrawal phenomena (Patient six [2]): no withdrawal phenomena
- body weight (Patient one): 119 lb
- smoking status (Patient one): not smoking

Molecule: COc1cc2c(cc1OC)C(=O)C(CC1CCN(Cc3ccccc3)CC1)C2 (stereo not shown) [Aricept, donepezil]
- patient-reported status after addition (Patient six [1]; Aricept 2.5 mg Monday, Wednesday, Friday added August 1998 to ongoing therapy): felt much better
- weight lost on therapy to date (Patient six [1]): approximately 25 lb
- body weight (Patient six [1]; [5]): 161 lb
- weight reduction (Patient two): 12.5%
- leg aches (Patient two): resolution of their leg aches

Molecule: CN(C)CCCC1(c2ccc(F)cc2)OCc2cc(C#N)ccc21 (stereo not shown) [Celexa, citalopram]
- body weight reported by phone (Patient five): ~240 lb
- body weight (Patient two): 127 lb
- weight reduction (Patient two): 12.5%

Molecule: O=C1NC(=O)C(c2ccccc2)(c2ccccc2)N1 [Dilantin]
- outcome of earlier trials for thalamic pain syndrome (Patient six [2]): no help

Molecule: CN(C)CCC=C1c2ccccc2CCc2ccccc21 [Elavil]
- outcome of earlier trials for thalamic pain syndrome (Patient six [2]): no help

Molecule: CNC1=Nc2ccc(Cl)cc2C(c2ccccc2)=[N+]([O-])C1 [Librium]
- side effect (Patient six [2]; 30 mg q.d., discontinued by day three): mild sleepiness
- alcohol withdrawal phenomena (Patient six [2]): no withdrawal phenomena

Molecule: NCC1(CC(=O)O)CCCCC1 [Neurontin]
- outcome of earlier trials for thalamic pain syndrome (Patient six [2]): no help

Molecule: CNCCC(Oc1ccc(C(F)(F)F)cc1)c1ccccc1 (stereo not shown) [Prozac, fluoxetine HCl]
- body weight (Patient one): 119 lb
- smoking status (Patient one): not smoking

Molecule: NC(=O)N1c2ccccc2C=Cc2ccccc21 [Tegretol]
- outcome of earlier trials for thalamic pain syndrome (Patient six [2]): no help

Molecule: CN[C@H]1CC[C@@H](c2ccc(Cl)c(Cl)c2)c2ccccc21 [Zoloft, sertraline HCl]
- body weight (Patient five): 245 lb
- cardiac output by echocardiography (Patient four; [3]): improved
- body weight (Patient four; [4]): 230 lb
- weight lost on therapy to date (Patient six [1]): approximately 25 lb
- overall condition (Patient six [1]): greatly improved

Molecule: CCNC(C)Cc1cccc(C(F)(F)F)c1 (stereo not shown) [fenfluramine]
- side effect noted by patient (Patient three): some difficulty sleeping
- patient-reported status (Patient three): life had been transformed back towards its normal status
- body weight (Patient five): 245 lb
- body weight (Patient four; [3]): 217 lb
- cardiac output by echocardiography (Patient four; [3]): improved
- cardiac index remeasured (Patient four): even more improved than previously
- body weight the next month (Patient four): 218
- weight lost on therapy to date (Patient six [1]): approximately 25 lb
- overall condition (Patient six [1]): greatly improved
- body weight change (Patient six [2]): marked weight loss
- energy level (Patient six [2]): marked improvement in energy level
- pain as described by patient (Patient six [2]): markedly diminished
- alcohol withdrawal phenomena (Patient six [2]): no withdrawal phenomena

Molecule: hydrocodone/APAPE [hydrocodone/APAPE 7.5/500]
- effect on pain (Patient six [2]; taken as needed at the time therapy started): not effective
